# According to patent US20230051263A1, “DEVICE FOR RAPID AND QU[…] OF DRUGS OF ABUSE IN SWEAT” (THE REGENTS OF THE UNIVERSITY OF MICHIGAN, priority 2020, published 2023):
# Key:
# Format in all cases: binding
# methadone antibody = experiment: Cross-reactivity of methadone sensor (capillary competitive chemiluminescent ELISA); details: target analyte methadone; challenging analyte in sweat 1.6-10,000 ng/mL vs methadone-HRP 2000x; IC50 ratio Eq. (1)
# Text: (§1) In order to develop a sensor array that can quantify the presence of multiple analytes simultaneously, it is important to examine their cross-reactivity. Using the methadone as an example, methadone was the target analyte and channels of the capillary sensor were first coated with methadone antibody. After blocking, serial concentrations of the challenging analytes, METH, amphetamine, or THC, were individually mixed with methadone-HRP and withdrawn into the capillaries. The challenging analyte molecules (e.g., METH) competed with methadone-HRP for the methadone antibody coated on the capillary surface. Cross-reactivity is calculated as follows: […]
# (§2) In order to perform multiplexed detection of drugs in sweat, first the cross-reactivity of the capillary-based sensors is examined. The capillary coated with the antibody intended for detecting one particular drug (i.e., target analyte) is challenged with various concentrations of the other three drugs (i.e., challenging analytes). Here, the concentrations of 10,000 ng/mL, 5,000 ng/mL, 400 ng/mL, 80 ng/mL, and 1.6 ng/mL for the challenging analytes in sweat are used. […] One exception is the 3.1% cross-reactivity of METH sensor to amphetamine, which is due to the structural similarities between METH and amphetamine.
# (§3) The final concentration of competing drug conjugates was 2000×, 4000×, 15000×, and 4000× for methadone-HRP, METH-HRP, amphetamine-HRP, and THC-HRP, respectively, in corresponding sensors.
# methamphetamine antibody = experiment: Cross-reactivity of METH sensor (capillary competitive chemiluminescent ELISA); details: target analyte METH, challenging analyte in sweat 1.6-10,000 ng/mL vs METH-HRP 4000x, IC50 ratio Eq. (1)
# Text: as §1, §2, §3
# [1] = tested on: tetrahydrocannabinol antibody; experiment: Cross-reactivity of THC sensor (capillary competitive chemiluminescent ELISA); details: target analyte THC; challenging analyte in sweat 1.6-10,000 ng/mL vs THC-HRP 4000x; IC50 ratio Eq. (1)
# Text: as §1, §2, §3
# [2] = tested on: corresponding antibody coated on capillary inner surface; experiment: Detection of individual drugs in artificial sweat, inhibition curves (capillary competitive chemiluminescent ELISA); details: y = a + b/(1+(x/x0)^p), x in ng/mL; used as calibration curve
# amphetamine antibody = experiment: Cross-reactivity of amphetamine sensor (capillary competitive chemiluminescent ELISA); details: target analyte amphetamine; challenging analyte in sweat 1.6-10,000 ng/mL vs amphetamine-HRP 15000x; IC50 ratio Eq. (1)
# Text: as §1, §2, §3
smiles,measurement,setting,value
"CC(N)Cc1ccccc1 (stereo not shown) [Amphetamine, amphetamine]",Cross-reactivity (100%),methadone antibody,<0.001%
same,Cross-reactivity (100%),methamphetamine antibody,3.1%
same,Cross-reactivity (100%),methamphetamine antibody; listed as amphetamine,3.1%
same,Cross-reactivity (100%),[1],<0.4%
same,midpoint parameter of logistic fit of inhibition curve B/B0 (%),[2],1473.04 ng/mL
"CN[C@@H](C)Cc1ccccc1 [METH, methamphetamine]",Cross-reactivity (100%),methadone antibody,<0.001%
same,Cross-reactivity (100%),amphetamine antibody,0.07%
same,Cross-reactivity (100%),[1],<0.4%
same,midpoint parameter of logistic fit of inhibition curve B/B0 (%),[2],7.63 ng/mL
"CCC(=O)C(CC(C)N(C)C)(c1ccccc1)c1ccccc1 (stereo not shown) [Methadone, methadone]",Cross-reactivity (100%),methamphetamine antibody,<0.04%
same,Cross-reactivity (100%),amphetamine antibody,<0.02%
same,Cross-reactivity (100%),[1],<0.4%
"CCCCCc1cc(O)c2c(c1)OC(C)(C)[C@@H]1CCC(C)=C[C@@H]21 [THC, tetrahydrocannabinol]",Cross-reactivity (100%),methadone antibody,<0.001%
same,Cross-reactivity (100%),methamphetamine antibody,<0.04%
same,Cross-reactivity (100%),amphetamine antibody,<0.02%
same,midpoint parameter of logistic fit of inhibition curve B/B0 (%),[2],5.95 ng/mL
